According to US20110166191A1, “3-(2-amino-ethyl)-5-(3-cyclohexyl-propylidene)-thiazolidine-2,4-dione and its derivatives as multiple signaling pathway inhibitors and for the treatment of cancer” (priority 2010, published 2011):

Tests used:
Test in all cases: In vitro kinase screening
Format in all cases: biochemical
MEK1 = target: T1, MEK1 (Homo sapiens, UniProt Q02750); conditions: MEK1, 10 μM concentration
T1 construct: Caliper Life Sciences
Experimental: (§1) Formula II [3-(2-aminoethyl)-5-(3-cyclohexylpropylidene)thiazolidine-2,4-dione] was screened against a panel of kinases at 10 μM concentration by Caliper Life Sciences according to their established protocol.

SYK = target: T2, SYK (Homo sapiens, UniProt P43405); conditions: 10 μM concentration
T2 construct: purchased Caliper Life Sciences
Experimental: as §1

HGK = target: T3, HGK (Homo sapiens, UniProt O95819); conditions: 10 μM concentration
T3 construct: Caliper Life Sciences (screening service)
Experimental: as §1

p38a = target: T4, p38a (Homo sapiens, UniProt Q16539); conditions: 10 μM concentration
T4 construct: Caliper Life Sciences
Experimental: as §1

AMPK = conditions: 10 μM concentration
Experimental: as §1

AKT2 = target: T5, AKT2 (Homo sapiens, UniProt P31751); conditions: AKT2, 10 μM concentration
T5 construct: Caliper Life Sciences (screening service)
Experimental: as §1

INSR = target: T6, INSR (Homo sapiens, UniProt P06213); conditions: 10 μM concentration
T6 construct: Caliper Life Sciences (screening service)
Experimental: as §1

Erk2 = target: T7, Erk2 (Homo sapiens, UniProt P28482); conditions: Erk2, 10 μM concentration
T7 construct: Caliper Life Sciences (screening service)
Experimental: as §1

PDK1 = target: T8, PDK1 (Homo sapiens, UniProt O15530); conditions: PDK1, 10 μM concentration
T8 construct: Caliper Life Sciences
T8 sequence (O15530 whole entry): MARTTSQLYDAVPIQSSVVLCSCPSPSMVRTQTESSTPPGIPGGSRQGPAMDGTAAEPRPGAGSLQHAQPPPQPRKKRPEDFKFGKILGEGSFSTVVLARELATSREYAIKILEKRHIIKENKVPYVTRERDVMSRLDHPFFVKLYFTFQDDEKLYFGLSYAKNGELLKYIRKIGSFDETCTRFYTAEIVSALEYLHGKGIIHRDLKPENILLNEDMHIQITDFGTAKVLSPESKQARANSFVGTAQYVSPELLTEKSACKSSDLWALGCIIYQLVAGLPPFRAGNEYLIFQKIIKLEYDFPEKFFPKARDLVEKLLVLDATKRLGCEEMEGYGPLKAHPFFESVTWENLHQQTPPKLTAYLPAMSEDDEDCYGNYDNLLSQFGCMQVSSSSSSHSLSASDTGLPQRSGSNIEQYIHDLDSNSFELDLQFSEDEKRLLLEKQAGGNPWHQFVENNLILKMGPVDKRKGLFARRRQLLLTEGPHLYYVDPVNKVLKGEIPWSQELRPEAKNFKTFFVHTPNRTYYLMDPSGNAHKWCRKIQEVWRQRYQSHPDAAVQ
Experimental: as §1

ROCK2 = target: T9, ROCK2 (Homo sapiens, UniProt O75116); conditions: ROCK2, 10 μM concentration
T9 construct: Caliper Life Sciences
Experimental: as §1

IRAK4 = target: T10, IRAK4 (Homo sapiens, UniProt Q9NWZ3); conditions: IRAK4, 10 μM concentration
T10 construct: Caliper Life Sciences (screening service)
T10 sequence (Q9NWZ3 whole entry): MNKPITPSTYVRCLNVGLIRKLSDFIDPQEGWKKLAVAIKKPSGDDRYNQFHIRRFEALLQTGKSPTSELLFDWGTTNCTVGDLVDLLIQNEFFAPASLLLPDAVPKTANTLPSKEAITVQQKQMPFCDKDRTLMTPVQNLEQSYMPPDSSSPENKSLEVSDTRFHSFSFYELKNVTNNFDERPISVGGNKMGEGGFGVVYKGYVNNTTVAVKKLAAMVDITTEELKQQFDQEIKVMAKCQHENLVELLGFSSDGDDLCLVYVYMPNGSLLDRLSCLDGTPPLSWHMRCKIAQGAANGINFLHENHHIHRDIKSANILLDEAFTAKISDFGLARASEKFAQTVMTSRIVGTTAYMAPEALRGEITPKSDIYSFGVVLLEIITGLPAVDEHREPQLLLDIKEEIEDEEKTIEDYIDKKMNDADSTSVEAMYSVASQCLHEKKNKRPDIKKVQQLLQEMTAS
Experimental: as §1

MET = target: T11, MET (Homo sapiens, UniProt P08581); conditions: 10 μM concentration
T11 construct: Caliper Life Sciences
Experimental: as §1

KDR = target: T12, KDR (Homo sapiens, UniProt P35968); conditions: 10 μM concentration
T12 construct: Caliper Life Sciences
Experimental: as §1

LYN = target: T13, LYN (Homo sapiens, UniProt P07948); conditions: 10 μM concentration
T13 construct: Caliper Life Sciences
Experimental: as §1

FGFR1 = target: T14, FGFR1 (Homo sapiens, UniProt P11362); conditions: FGFR1, 10 μM concentration
T14 construct: Caliper Life Sciences (screening service)
Experimental: as §1

LCK = target: T15, LCK (Homo sapiens, UniProt P06239); conditions: 10 μM concentration
T15 construct: Caliper Life Sciences
Experimental: as §1

PKGa = target: T16, PKGa (Homo sapiens, UniProt Q13976); conditions: 10 μM concentration
T16 construct: Caliper Life Sciences
Experimental: as §1

MARK1 = target: T17, MARK1 (Homo sapiens, UniProt Q9P0L2); conditions: MARK1, 10 μM concentration
T17 construct: Caliper Life Sciences
T17 sequence (Q9P0L2 whole entry, species assumed): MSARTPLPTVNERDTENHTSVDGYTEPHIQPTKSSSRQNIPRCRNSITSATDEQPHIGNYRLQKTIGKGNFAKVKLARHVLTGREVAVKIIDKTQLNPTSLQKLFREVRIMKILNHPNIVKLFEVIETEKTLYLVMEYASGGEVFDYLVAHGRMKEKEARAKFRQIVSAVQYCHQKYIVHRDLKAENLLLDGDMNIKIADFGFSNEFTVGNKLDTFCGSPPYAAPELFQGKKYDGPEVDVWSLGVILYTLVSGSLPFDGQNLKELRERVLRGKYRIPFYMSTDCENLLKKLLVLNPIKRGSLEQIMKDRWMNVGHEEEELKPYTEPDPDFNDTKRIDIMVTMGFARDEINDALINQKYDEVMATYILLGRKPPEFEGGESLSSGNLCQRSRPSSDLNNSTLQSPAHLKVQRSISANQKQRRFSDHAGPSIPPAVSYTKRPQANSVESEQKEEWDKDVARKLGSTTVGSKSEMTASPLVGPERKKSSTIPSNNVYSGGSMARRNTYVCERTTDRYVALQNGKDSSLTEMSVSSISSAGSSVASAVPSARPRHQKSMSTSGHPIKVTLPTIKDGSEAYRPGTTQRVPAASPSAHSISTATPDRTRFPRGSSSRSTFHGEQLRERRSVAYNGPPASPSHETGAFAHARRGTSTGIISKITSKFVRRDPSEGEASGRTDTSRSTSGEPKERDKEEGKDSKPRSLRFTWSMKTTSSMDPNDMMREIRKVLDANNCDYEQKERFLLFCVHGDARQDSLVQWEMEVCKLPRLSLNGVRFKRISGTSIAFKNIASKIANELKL
Experimental: as §1

PRAK = target: T18, PRAK (Homo sapiens, UniProt Q8IW41); conditions: 10 μM concentration
T18 construct: Caliper Life Sciences
T18 sequence (Q8IW41 whole entry, species assumed): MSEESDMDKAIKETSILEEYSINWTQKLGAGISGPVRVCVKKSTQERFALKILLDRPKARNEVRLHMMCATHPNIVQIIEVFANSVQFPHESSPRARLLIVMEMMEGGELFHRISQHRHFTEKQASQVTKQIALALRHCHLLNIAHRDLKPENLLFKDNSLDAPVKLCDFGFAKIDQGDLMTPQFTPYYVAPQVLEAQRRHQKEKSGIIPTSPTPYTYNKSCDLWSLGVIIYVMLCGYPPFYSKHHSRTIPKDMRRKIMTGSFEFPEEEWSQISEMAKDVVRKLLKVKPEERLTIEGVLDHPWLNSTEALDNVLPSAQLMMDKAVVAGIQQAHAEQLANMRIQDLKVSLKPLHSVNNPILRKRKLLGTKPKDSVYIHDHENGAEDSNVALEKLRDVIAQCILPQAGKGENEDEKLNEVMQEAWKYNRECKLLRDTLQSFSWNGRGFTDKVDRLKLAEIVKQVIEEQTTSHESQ
Experimental: as §1

AurA = target: T19, AurA (Homo sapiens, UniProt O14965); conditions: 10 μM concentration
T19 construct: Caliper Life Sciences (screening service)
T19 sequence (O14965 whole entry): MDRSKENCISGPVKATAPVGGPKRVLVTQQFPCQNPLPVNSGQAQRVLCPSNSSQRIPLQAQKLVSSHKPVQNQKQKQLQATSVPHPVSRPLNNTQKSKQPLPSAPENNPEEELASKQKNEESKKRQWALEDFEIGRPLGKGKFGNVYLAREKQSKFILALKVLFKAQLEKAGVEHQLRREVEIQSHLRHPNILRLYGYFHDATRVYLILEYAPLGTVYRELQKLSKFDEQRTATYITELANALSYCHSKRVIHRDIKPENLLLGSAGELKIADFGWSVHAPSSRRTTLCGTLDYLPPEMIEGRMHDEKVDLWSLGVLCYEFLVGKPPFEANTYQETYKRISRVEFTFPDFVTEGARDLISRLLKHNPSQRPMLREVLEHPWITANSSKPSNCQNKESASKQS
Experimental: as §1

GSK3b = target: T20, GSK3b (Homo sapiens, UniProt P49841); conditions: 10 μM concentration
T20 construct: Caliper Life Sciences (screening service)
Experimental: as §1

p70S6K = target: T21, p70S6K (Homo sapiens, UniProt P23443); conditions: 10 μM concentration
T21 construct: Caliper Life Sciences
Experimental: as §1

DYRK1a = target: T22, DYRK1a (Homo sapiens, UniProt Q13627); conditions: 10 μM concentration
T22 construct: Caliper Life Sciences (screening service)
Experimental: as §1

Erk1 = target: T23, Erk1 (Homo sapiens, UniProt P27361); conditions: Erk1, 10 μM concentration
T23 construct: Caliper Life Sciences (screening service)
T23 sequence (P27361 whole entry): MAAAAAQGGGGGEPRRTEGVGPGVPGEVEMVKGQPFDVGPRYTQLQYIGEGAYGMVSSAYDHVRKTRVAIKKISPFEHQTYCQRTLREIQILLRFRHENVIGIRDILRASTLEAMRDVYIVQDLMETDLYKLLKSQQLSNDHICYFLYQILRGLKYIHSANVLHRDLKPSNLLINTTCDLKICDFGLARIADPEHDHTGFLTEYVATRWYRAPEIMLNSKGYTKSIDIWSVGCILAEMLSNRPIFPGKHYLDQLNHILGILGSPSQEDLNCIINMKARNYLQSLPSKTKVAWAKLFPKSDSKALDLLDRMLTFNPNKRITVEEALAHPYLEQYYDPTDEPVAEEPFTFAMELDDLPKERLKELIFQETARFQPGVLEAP
Experimental: as §1

RSK1 = target: T24, RSK1 (Homo sapiens, UniProt Q15418); conditions: RSK1, 10 μM concentration
T24 construct: Caliper Life Sciences
Experimental: as §1

BTK = target: T25, BTK (Homo sapiens, UniProt Q06187); conditions: 10 μM concentration
T25 construct: Caliper Life Sciences (screening service)
T25 sequence (Q06187 whole entry): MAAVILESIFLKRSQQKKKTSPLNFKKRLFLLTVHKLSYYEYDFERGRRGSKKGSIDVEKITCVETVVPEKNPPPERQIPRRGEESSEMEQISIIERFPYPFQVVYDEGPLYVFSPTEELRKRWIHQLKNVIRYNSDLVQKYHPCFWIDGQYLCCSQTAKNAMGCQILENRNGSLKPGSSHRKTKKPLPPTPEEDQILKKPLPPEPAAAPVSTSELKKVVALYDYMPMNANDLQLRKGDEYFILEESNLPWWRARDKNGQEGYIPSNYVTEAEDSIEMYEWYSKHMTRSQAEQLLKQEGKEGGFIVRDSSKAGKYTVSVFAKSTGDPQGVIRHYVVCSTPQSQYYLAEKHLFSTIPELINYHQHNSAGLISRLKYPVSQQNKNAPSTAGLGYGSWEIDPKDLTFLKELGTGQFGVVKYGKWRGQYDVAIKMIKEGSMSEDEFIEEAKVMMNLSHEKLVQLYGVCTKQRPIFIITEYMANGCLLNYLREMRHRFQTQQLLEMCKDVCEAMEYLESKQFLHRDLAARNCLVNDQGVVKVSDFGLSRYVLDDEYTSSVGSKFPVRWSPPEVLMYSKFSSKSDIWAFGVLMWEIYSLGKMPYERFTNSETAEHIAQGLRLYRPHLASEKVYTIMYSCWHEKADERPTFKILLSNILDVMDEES
Experimental: as §1

MAPKAPK2 = target: T26, MAPKAPK2 (Homo sapiens, UniProt P49137); conditions: MAPKAPK2, 10 μM concentration
T26 construct: Caliper Life Sciences
T26 sequence (P49137 whole entry, species assumed): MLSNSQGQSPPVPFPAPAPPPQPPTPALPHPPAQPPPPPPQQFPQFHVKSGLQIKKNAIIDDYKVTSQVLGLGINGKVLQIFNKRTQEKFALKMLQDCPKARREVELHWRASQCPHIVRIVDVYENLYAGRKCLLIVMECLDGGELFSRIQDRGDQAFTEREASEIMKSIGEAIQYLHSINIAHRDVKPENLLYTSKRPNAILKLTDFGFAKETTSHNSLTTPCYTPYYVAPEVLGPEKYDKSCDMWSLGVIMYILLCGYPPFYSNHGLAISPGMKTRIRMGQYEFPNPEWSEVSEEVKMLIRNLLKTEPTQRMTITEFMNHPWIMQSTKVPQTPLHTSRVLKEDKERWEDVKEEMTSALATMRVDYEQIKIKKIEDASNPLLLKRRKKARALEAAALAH
Experimental: as §1

PIM2 = target: T27, PIM2 (Homo sapiens, UniProt Q9P1W9); conditions: PIM2, 10 μM concentration
T27 construct: Caliper Life Sciences
Experimental: as §1

AKT1 = target: T28, AKT1 (Homo sapiens, UniProt P31749); conditions: AKT1, 10 μM concentration
T28 construct: Caliper Life Sciences (screening service)
Experimental: as §1

SGK1 = target: T29, SGK1 (Homo sapiens, UniProt O00141); conditions: SGK1, 10 μM concentration
T29 construct: Caliper Life Sciences
T29 sequence (O00141 whole entry, species assumed): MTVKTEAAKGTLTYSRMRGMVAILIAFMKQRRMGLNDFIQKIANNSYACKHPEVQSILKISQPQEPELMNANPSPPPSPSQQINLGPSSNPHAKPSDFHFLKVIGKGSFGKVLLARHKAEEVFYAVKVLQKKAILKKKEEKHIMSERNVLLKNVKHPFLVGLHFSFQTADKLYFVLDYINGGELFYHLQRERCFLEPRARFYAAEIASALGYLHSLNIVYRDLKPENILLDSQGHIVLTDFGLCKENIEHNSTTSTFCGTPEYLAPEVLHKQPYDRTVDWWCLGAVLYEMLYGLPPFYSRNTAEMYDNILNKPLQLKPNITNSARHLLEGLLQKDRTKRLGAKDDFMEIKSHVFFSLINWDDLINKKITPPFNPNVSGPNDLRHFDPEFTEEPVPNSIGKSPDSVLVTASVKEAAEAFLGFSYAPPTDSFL
Experimental: as §1

MST2 = target: T30, MST2 (Homo sapiens, UniProt Q13188); conditions: MST2, 10 μM concentration
T30 construct: Caliper Life Sciences
Experimental: as §1

Ck1d = target: T31, Ck1d (Homo sapiens, UniProt P48730); conditions: 10 μM concentration
T31 construct: Caliper Life Sciences (screening service)
T31 sequence (P48730 whole entry): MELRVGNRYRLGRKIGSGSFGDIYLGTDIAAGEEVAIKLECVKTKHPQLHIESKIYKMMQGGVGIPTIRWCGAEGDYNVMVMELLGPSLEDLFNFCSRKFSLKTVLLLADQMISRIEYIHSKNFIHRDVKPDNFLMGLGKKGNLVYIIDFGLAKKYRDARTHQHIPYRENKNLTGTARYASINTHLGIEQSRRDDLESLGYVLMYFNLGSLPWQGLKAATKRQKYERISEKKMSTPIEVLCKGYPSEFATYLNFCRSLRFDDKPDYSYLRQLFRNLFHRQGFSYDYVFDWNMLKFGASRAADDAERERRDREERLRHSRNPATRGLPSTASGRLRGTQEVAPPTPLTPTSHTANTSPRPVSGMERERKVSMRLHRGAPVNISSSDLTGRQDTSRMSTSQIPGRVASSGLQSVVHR
Experimental: as §1

PKD2 = target: T32, PKD2 (Homo sapiens, UniProt Q9BZL6); conditions: PKD2, 10 μM concentration
T32 construct: Caliper Life Sciences
Experimental: as §1

PKCz = target: T33, PKCz (Homo sapiens, UniProt Q05513); conditions: 10 μM concentration
T33 construct: Caliper Life Sciences
Experimental: as §1

PAK2 = target: T34, PAK2 (Homo sapiens, UniProt Q13177); conditions: PAK2, 10 μM concentration
T34 construct: Caliper Life Sciences
Experimental: as §1

CHK1 = target: T35, CHK1 (Homo sapiens, UniProt O14757); conditions: CHK1, 10 μM concentration
T35 construct: Caliper Life Sciences (screening service)
Experimental: as §1

FYN = target: T36, FYN (Homo sapiens, UniProt P06241); conditions: 10 μM concentration
T36 construct: Caliper Life Sciences (screening service)
Experimental: as §1

In the case of `NCCN1C(=O)S/C(=C\CCC2CCCCC2)C1=O` [Example 4, 3-(2-aminoethyl)-5-(3-cyclohexylpropylidene)thiazolidine-2,4-dione], the inhibition at 10 µM (MEK1) is reported as 69%, the inhibition at 10 µM (SYK) is reported as 9% and the inhibition at 10 µM (HGK) is reported as -1%. The inhibition at 10 µM (p38a) was -13%, the “% Inhibition” value (AMPK) was 76% and the inhibition at 10 µM (AKT2) was 8%. It also gave an inhibition at 10 µM (INSR) of -2%, an inhibition at 10 µM (Erk2) of 11% and an inhibition at 10 µM (PDK1) of -2%. The inhibition at 10 µM (ROCK2) was -1%, the inhibition at 10 µM (IRAK4) was -1% and the inhibition at 10 µM (MET) was -1%. It also gave an inhibition at 10 µM (KDR) of -28%, an inhibition at 10 µM (LYN) of 0% and an inhibition at 10 µM (FGFR1) of 3%. For the same compound, the inhibition at 10 µM (LCK) was 4%, the inhibition at 10 µM (PKGa) was -2% and the inhibition at 10 µM (MARK1) was 0%. For the same compound, the inhibition at 10 µM (PRAK) was 4%, the inhibition at 10 µM (AurA) was -4% and the inhibition at 10 µM (GSK3b) was 0%. The inhibition at 10 µM (p70S6K) was 5%, the inhibition at 10 µM (DYRK1a) was -5% and the inhibition at 10 µM (Erk1) was 21%. For the same compound, the inhibition at 10 µM (RSK1) was 2%, the inhibition at 10 µM (BTK) was 12% and the inhibition at 10 µM (MAPKAPK2) was 3%. It also gave an inhibition at 10 µM (PIM2) of 38%, an inhibition at 10 µM (AKT1) of 3% and an inhibition at 10 µM (SGK1) of 14%. The inhibition at 10 µM (MST2) was -3%, the inhibition at 10 µM (Ck1d) was -5% and the inhibition at 10 µM (PKD2) was 0%. The inhibition at 10 µM (PKCz) was -8%, the inhibition at 10 µM (PAK2) was 10% and the inhibition at 10 µM (CHK1) was 11%. The inhibition at 10 µM (FYN) was 0%.
